We go through 17 molecules from patent publication US9616063B2, “1-[2-(aminomethyl)benzyl]-2-thioxo-1,2,3,5-tetrahydro-4H-pyrrolo[3,2-d]pyrimidin-4-ones as inhibitors of myeloperoxidase” (AstraZeneca AB, priority 2014, dated 2017).

Assay [1] deals with MPO purified from the human cell line HL60 (Homo sapiens (Human), UniProt P05164). Put plainly: MPO inhibition, Test A (loss of ascorbate, absorbance at 260 nm). The format is biochemical. The note with it: absorbance at 260 nm 20 minutes after substrate addition. As to the method: (§1) Methods for the determination of MPO inhibitory activity are disclosed in WO 02/090575. The pharmacological activity of compounds disclosed herein was tested in the following screen (Test A) in which the compounds were tested in the presence of ascorbate, which reacts with MPO-derived hypochlorous acid (HOCl) to form dehydro-ascorbate. The loss of ascorbate is followed by measuring absorbance at 260 nm.
(§2) Assay buffer: 100 μM diethyl triamine pentaacetic acid (DTPA) in buffer consisting of 10 mM Na2HPO4/NaH2PO4, 3 mM KCl in 140 mM NaCl, pH 7.4.
(§3) Enzyme solution: MPO purified from the human cell line HL60, 1.38 nM (final concentration 0.7 nM) and L-ascorbate, 100 μM (final concentration 50 μM) in Assay buffer
(§4) Substrate solution: H2O2, 98 μM (final concentration 49 μM) Forty μL of the enzyme solution was added to 0.6 μL compound serially diluted in DMSO. Absorbance was measured at 260 nm to obtain a compound blank value. After an additional 10 min, 40 μL of the substrate solution was added and the absorbance at 260 nm was recorded between 4 and 40 min to obtain kinetic readings of enzyme activity.

In assay [2] the test system is MPO purified from the human cell line HL60. The description is as above. Type of assay: biochemical. The conditions noted are these: ratio TPO to MPO, selectivity for MPO over TPO. As to the method: as §1, §2, §3, §4
Assay [3] concerns the target baculovirus-expressed recombinant human TPO (Homo sapiens (Human), UniProt P07202). Put plainly: TPO inhibition (hypoiodous acid production, absorbance at 353 nm). Type of assay: biochemical. As to the method:
To detect thyroid peroxidase (TPO) inhibitory activity, the production of hypoiodous acid (HOI) was quantified. HOI was detected by reacting it with methionine, which is converted to dehydro-methionine, which in turn is detected by reacting it with excess iodide at acidic pH. The reaction converts I^− to I3^− that has absorbance at 353 nm. In brief, 0.6 μL compound serially diluted in DMSO was added to 25 μL 50 nM baculovirus-expressed recombinant human TPO (obtained from RSR Ltd, Cardiff, UK) in assay buffer (100 mM Na2HPO4/NaH2PO4, pH 7.4), after which absorbance at 353 nm was read to obtain a blank value. The enzyme reaction was initiated by the addition of 25 μL of a mix consisting of 2 mM methionine, 20 μM NaI and 100 μM H2O2 in assay buffer, and stopped by the addition of 10 μL catalase, 0.25 mg/mL. […] IC50 values of the compounds tested were obtained using standard procedures.

The target in the next assay is activated MPO (Homo sapiens (Human), UniProt P05164). Put plainly: Urate production from xanthine by activated MPO in vitro (LC-MS). The format is biochemical. The note with it: activated MPO incubated with xanthine and titrated compound for 80 min. The source says: The dotted line represents the urate formed in the presence of unactivated MPO.
In addition to MPOs role in maintaining elevated urate levels due to poor perfusion as discussed above, we also propose that MPO per se may generate urate by oxidizing xanthine in concert with xanthine oxidase.

For assay [4] the following is noted: healthy subjects, clinical trial, data not shown; cited from earlier work.
The nature of assay [5]: Plasma urate levels in Healthy Volunteers after MPO inhibitor treatment (clinical trial). Type of assay: in vivo, human. The note with it: daily dose for 10 days, FIG. 2, NCT00914303. The protocol: Subjects received placebo or the indicated daily dose for 10 days, and the difference in plasma urate levels versus baseline was calculated. Each symbol represents one subject.

MPO purified from the human cell line HL60 (Homo sapiens (Human), UniProt P05164), sequence (P05164 whole entry, looked up, change not shown): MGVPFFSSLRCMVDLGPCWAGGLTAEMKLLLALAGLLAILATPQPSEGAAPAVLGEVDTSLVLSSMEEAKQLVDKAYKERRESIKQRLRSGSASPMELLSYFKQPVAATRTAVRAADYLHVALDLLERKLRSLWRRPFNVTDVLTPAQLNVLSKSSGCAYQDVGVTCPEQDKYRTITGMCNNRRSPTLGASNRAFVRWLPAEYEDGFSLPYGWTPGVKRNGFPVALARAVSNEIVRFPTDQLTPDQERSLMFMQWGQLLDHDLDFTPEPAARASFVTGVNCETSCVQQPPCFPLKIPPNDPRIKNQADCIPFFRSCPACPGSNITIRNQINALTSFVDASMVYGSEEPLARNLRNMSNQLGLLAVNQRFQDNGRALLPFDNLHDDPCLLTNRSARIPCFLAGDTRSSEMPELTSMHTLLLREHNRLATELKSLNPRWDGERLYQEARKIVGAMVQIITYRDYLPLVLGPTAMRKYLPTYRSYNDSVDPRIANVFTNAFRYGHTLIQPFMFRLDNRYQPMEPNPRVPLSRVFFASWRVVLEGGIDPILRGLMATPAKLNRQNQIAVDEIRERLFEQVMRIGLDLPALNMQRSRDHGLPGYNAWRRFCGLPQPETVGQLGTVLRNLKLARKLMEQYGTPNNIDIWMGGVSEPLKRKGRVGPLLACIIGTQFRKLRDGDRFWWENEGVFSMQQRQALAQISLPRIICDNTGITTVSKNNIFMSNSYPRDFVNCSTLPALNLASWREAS
MPO purified from the human cell line HL60 (Homo sapiens (Human), UniProt P05164), sequence (P05164 whole entry, looked up, change not shown): as above
baculovirus-expressed recombinant human TPO, sequence (P07202 19-933): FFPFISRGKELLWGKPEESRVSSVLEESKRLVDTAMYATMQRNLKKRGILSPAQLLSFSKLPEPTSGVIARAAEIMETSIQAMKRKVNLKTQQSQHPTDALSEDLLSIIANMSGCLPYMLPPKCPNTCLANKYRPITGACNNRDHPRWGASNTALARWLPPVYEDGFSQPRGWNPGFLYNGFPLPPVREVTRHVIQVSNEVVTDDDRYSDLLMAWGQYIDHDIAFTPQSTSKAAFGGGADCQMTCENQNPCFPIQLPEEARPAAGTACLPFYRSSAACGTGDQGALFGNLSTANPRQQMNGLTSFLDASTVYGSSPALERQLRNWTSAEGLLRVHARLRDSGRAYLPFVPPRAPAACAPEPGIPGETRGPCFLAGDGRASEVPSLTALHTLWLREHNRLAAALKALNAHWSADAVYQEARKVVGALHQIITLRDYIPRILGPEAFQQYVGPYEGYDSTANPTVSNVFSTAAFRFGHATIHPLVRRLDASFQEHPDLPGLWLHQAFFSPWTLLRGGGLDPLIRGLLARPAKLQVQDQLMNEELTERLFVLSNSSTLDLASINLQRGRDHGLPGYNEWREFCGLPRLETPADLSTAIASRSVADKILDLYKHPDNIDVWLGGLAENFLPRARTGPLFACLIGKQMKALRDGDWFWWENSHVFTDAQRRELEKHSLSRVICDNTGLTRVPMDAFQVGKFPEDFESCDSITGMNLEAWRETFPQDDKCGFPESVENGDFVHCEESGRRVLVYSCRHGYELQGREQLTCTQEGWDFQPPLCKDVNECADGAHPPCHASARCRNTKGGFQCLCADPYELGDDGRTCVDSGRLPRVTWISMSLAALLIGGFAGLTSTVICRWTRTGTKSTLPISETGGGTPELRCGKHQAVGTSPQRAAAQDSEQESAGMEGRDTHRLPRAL
activated MPO, sequence (P05164 49-745): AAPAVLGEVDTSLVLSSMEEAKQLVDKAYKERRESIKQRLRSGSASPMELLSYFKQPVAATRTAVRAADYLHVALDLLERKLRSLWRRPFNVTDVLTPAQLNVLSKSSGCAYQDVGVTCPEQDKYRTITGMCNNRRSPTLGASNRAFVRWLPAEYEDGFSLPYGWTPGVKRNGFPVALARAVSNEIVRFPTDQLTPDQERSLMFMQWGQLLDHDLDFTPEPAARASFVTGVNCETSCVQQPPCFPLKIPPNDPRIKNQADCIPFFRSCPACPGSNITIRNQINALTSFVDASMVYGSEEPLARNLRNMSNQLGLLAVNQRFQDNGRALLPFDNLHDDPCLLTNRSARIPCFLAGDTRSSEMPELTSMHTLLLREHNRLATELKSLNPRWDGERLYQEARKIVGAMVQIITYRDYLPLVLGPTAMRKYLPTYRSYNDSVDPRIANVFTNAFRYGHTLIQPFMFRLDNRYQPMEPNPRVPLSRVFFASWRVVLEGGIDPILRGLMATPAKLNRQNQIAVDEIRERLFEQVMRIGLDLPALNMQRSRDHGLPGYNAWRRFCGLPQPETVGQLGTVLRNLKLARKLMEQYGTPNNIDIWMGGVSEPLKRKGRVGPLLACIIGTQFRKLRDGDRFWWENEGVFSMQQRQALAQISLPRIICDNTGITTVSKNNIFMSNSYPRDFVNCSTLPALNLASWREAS

What is called IC50 is the concentration needed to halve the response being measured. As to `NCc1cc(C(F)(F)F)ccc1Cn1c(=S)[nH]c(=O)c2[nH]ccc21` [Example 14, 1-[2-(Aminomethyl)-4-(trifluoromethyl)benzyl]-2-thioxo-1,2,3,5-tetrahydro-4H-pyrrolo[3,2-d]pyrimidin-4-one], the IC50 in assay [1] stood at 0.04 µM; in assay [3] it was 28 µM. In addition, the “IC50 (TPO)/IC50 (MPO)” value in assay [2] was 697.
As for `CC[C@@H](N)c1cc(Cl)ccc1Cn1c(=S)[nH]c(=O)c2[nH]ccc21` [Example 1, 1-{2-[(1R)-1-Aminopropyl]-4-chlorobenzyl}-2-thioxo-1,2,3,5-tetrahydro-4H-pyrrolo[3,2-d]pyrimidin-4-one], the IC50 in assay [1] was determined as 0.0086 µM; in assay [3], 4.4 µM. The “IC50 (TPO)/IC50 (MPO)” value in assay [2] was 512.
In the case of `C[C@@H](N)c1cc(Cl)ccc1Cn1c(=S)[nH]c(=O)c2[nH]ccc21` [Example 3, 1-{2-[(1R)-1-Aminoethyl]-4-chlorobenzyl}-2-thioxo-1,2,3,5-tetrahydro-4H-pyrrolo[3,2-d]pyrimidin-4-one], the IC50 in assay [3] is 4.3 µM. Moreover, the “inhibition of urate production by activated MPO” value against activated MPO was “concentration-dependently inhibited”.
Regarding `C[C@H](N)c1cc(Cl)ccc1Cn1c(=S)[nH]c(=O)c2[nH]ccc21` [Example 4b, 1-{2-[(1S)-1-Aminoethyl]-4-chlorobenzyl}-2-thioxo-1,2,3,5-tetrahydro-4H-pyrrolo[3,2-d]pyrimidin-4-one], the IC50 in assay [3] came out at 68 µM.
For `CC(C)CNCc1ccccc1Cn1c(=S)[nH]c(=O)c2[nH]ccc21` [Example 12, 1-(2-{[(2-Methylpropyl)amino]methyl}benzyl)-2-thioxo-1,2,3,5-tetrahydro-4H-pyrrolo[3,2-d]pyrimidin-4-one], the IC50 in assay [1] was determined as 0.054 µM; in assay [3], 46 µM. Also, the “IC50 (TPO)/IC50 (MPO)” value in assay [2] was 852.
As to `O=c1[nH]c(=S)n(C[C@H]2CCCO2)c2nc[nH]c12` [AZD5904], the “reduction of urate levels” value in assay [4] is “dose-dependently reduced urate levels”.
With `CNCc1cc(Cl)ccc1Cn1c(=S)[nH]c(=O)c2[nH]ccc21` [Example 8, 1-{4-Chloro-2-[(methylamino)methyl]benzyl}-2-thioxo-1,2,3,5-tetrahydro-4H-pyrrolo[3,2-d]pyrimidin-4-one], the results for the IC50 in assay [1] and in assay [3] were 0.013 µM and 13 µM, respectively. For the same molecule, the “IC50 (TPO)/IC50 (MPO)” value in assay [2] stood at 952.
In the same order, the values of `CCNCc1cc(Cl)ccc1Cn1c(=S)[nH]c(=O)c2[nH]ccc21` [Example 6, 1-{4-Chloro-2-[(ethylamino)methyl]benzyl}-2-thioxo-1,2,3,5-tetrahydro-4H-pyrrolo[3,2-d]pyrimidin-4-one] are 0.022 µM, 10 µM and 455.
Take `CC(N)c1cc(Cl)ccc1Cn1c(=S)[nH]c(=O)c2[nH]ccc21` (racemic) [Example 2, 1-[2-(1-Aminoethyl)-4-chlorobenzyl]-2-thioxo-1,2,3,5-tetrahydro-4H-pyrrolo[3,2-d]pyrimidin-4-one]: the IC50 in assay [3] came out at 8.8 µM.
In the case of `CNCc1cc(C(F)(F)F)ccc1Cn1c(=S)[nH]c(=O)c2[nH]ccc21` [Example 15, 1-{2-[(Methylamino)methyl]-4-(trifluoromethyl)benzyl}-2-thioxo-1,2,3,5-tetrahydro-4H-pyrrolo[3,2-d]pyrimidin-4-one], the results for the IC50 in assay [1] and in assay [3] were 0.049 µM and 11 µM, respectively. In assay [2], the “IC50 (TPO)/IC50 (MPO)” value was 224.
On to `NCc1cc(Cl)ccc1Cn1c(=S)[nH]c(=O)c2[nH]ccc21` [Example 7, 1-[2-(Aminomethyl)-4-chlorobenzyl]-2-thioxo-1,2,3,5-tetrahydro-4H-pyrrolo[3,2-d]pyrimidin-4-one], for which the IC50 in assay [3] amounted to 11 µM.
In the case of `CC(C)NCc1ccccc1Cn1c(=S)[nH]c(=O)c2[nH]ccc21` [Example 13, 1-{2-[(Propan-2-ylamino)methyl]benzyl}-2-thioxo-1,2,3,5-tetrahydro-4H-pyrrolo[3,2-d]pyrimidin-4-one], the results for the IC50 in assay [1] and in assay [3] were 0.024 µM and 38 µM, respectively. In addition, the “IC50 (TPO)/IC50 (MPO)” value in assay [2] is 1609.
In the same order, the values of `O=c1[nH]c(=S)n(Cc2ccccc2CNC2CCC2)c2cc[nH]c12` [Example 10, 1-{2-[(Cyclobutylamino)methyl]benzyl}-2-thioxo-1,2,3,5-tetrahydro-4H-pyrrolo[3,2-d]pyrimidin-4-one] are 0.01 µM, 11 µM and 1100.
With `CC(C)OCCn1c(=S)[nH]c(=O)c2[nH]ccc21` [AZD3241], in assay [5], the “reduction of plasma urate levels versus baseline” value is listed as “dose-dependently reduced urate levels”.
`O=c1[nH]c(=S)n(Cc2ccccc2CNCC2CCC2)c2cc[nH]c12` [Example 9, 1-(2-{[(Cyclobutylmethyl)amino]methyl}benzyl)-2-thioxo-1,2,3,5-tetrahydro-4H-pyrrolo[3,2-d]pyrimidin-4-one]: the IC50 in assay [1] stood at 0.029 µM; in assay [3], 16 µM. The “IC50 (TPO)/IC50 (MPO)” value in assay [2] is on record as 552.
In the same order, the values of `O=c1[nH]c(=S)n(Cc2ccccc2CNC2CCCC2)c2cc[nH]c12` [Example 11, 1-{2-[(Cyclopentylamino)methyl]benzyl}-2-thioxo-1,2,3,5-tetrahydro-4H-pyrrolo[3,2-d]pyrimidin-4-one] are 0.014 µM, 19 µM and 1357.
On to `CNC(C)c1cc(Cl)ccc1Cn1c(=S)[nH]c(=O)c2[nH]ccc21` (stereo not shown) [Example 5, 1-{4-Chloro-2-[1-(methylamino)ethyl]benzyl}-2-thioxo-1,2,3,5-tetrahydro-4H-pyrrolo[3,2-d]pyrimidin-4-one], for which the IC50 in assay [1] is 0.019 µM; in assay [3], 8.9 µM. Besides, the “IC50 (TPO)/IC50 (MPO)” value in assay [2] is listed as 468.
